Assays:
[1] = target: LIM domain kinase 1 (Homo sapiens) (UniProt P53667); experiment: Inhibition of human LIMK1 at 100 nM using cofilin as substrate by [gamma-33P]-ATP assay
[2] = target: Mitogen-activated protein kinase kinase kinase 3 (Homo sapiens) (UniProt Q99759); experiment: Inhibition of human MEKK3 at 100 nM using MBP as substrate by [gamma-33P]-ATP assay
[3] = target: Testis-specific serine/threonine-protein kinase 1 (Homo sapiens) (UniProt Q9BXA7); experiment: Inhibition of human STK22D at 100 nM using KKKVSRSGLYRSPSMPENLNRPR as substrate by [gamma-33P]-ATP assay
[4] = target: Dual specificity protein kinase CLK4 (Homo sapiens) (UniProt Q9HAZ1); experiment: Inhibition of human CLK4 at 100 nM using MBP as substrate by [gamma-33P]-ATP assay
[5] = target: Receptor-interacting serine/threonine-protein kinase 3 (Homo sapiens) (UniProt Q9Y572); experiment: Inhibition of human RIPK3 at 100 nM using MBP as substrate by [gamma-33P]-ATP assay
[6] = target: Mitogen-activated protein kinase kinase kinase 20 (Homo sapiens) (UniProt Q9NYL2); experiment: Inhibition of human ZAK at 100 nM using MBP as substrate by [gamma-33P]-ATP assay
[7] = target: Cyclin-dependent kinase 14/Cyclin-Y (Homo sapiens) (UniProt O94921+Q8ND76); experiment: Inhibition of human CDK14/cyclin-Y at 100 nM using RB protein as substrate by [gamma-33P]-ATP assay; assay type: protein-complex assay
[8] = target: Tyrosine-protein kinase Fer (Homo sapiens) (UniProt P16591); experiment: Inhibition of human FER at 100 nM using poly[Glu:Tyr] (4:1) as substrate by [gamma-33P]-ATP assay
[9] = target: Serine/threonine-protein kinase N3 (Homo sapiens) (UniProt Q6P5Z2); experiment: Inhibition of human PKN3 at 100 nM using KKLNRTLSVA as substrate by [gamma-33P]-ATP assay
[10] = target: Ribosomal protein S6 kinase alpha-1 (Homo sapiens) (UniProt Q15418); experiment: Inhibition of human RSK1 at 100 nM using KKLNRTLSVA as substrate by [gamma-33P]-ATP assay
[11] = target: Proto-oncogene tyrosine-protein kinase ROS (Homo sapiens) (UniProt P08922); experiment: Inhibition of human ROS at 100 nM using KKKSPGEYVNIEFG as substrate by [gamma-33P]-ATP assay
[12] = target: Serine/threonine-protein kinase Nek7 (Homo sapiens) (UniProt Q8TDX7); experiment: Inhibition of human NEK7 at 100 nM using casein as substrate by [gamma-33P]-ATP assay
[13] = target: Mitogen-activated protein kinase kinase kinase 8 (Homo sapiens) (UniProt P41279); experiment: Inhibition of human COT1 at 100 nM using MEK1 as substrate by [gamma-33P]-ATP assay
[14] = target: Cyclin-dependent kinase 5/CDK5 activator 1 (Homo sapiens) (UniProt Q00535+Q15078); experiment: Inhibition of human CDK5/p25 at 100 nM using histone H1 as substrate by [gamma-33P]-ATP assay; assay type: protein-complex assay
[15] = target: Interleukin-1 receptor-associated kinase 1 (Homo sapiens) (UniProt P51617); experiment: Inhibition of human IRAK1 at 100 nM using MBP as substrate by [gamma-33P]-ATP assay
[16] = target: Ephrin type-B receptor 4 (Homo sapiens) (UniProt P54760); experiment: Inhibition of human EPHB4 at 100 nM using poly[Glu:Tyr] (4:1) as substrate by [gamma-33P]-ATP assay
[17] = target: Serine/threonine-protein kinase PAK 5 (Homo sapiens) (UniProt Q9P286); experiment: Inhibition of human PAK5 at 100 nM using RRRLSFAEPG as substrate by [gamma-33P]-ATP assay
[18] = target: Serine/threonine-protein kinase TBK1 (Homo sapiens) (UniProt Q9UHD2); experiment: Inhibition of human TBK1 at 100 nM using KRRRAL[pS]VASLPGL as substrate by [gamma-33P]-ATP assay
[19] = target: Calcium/calmodulin-dependent protein kinase type II subunit alpha (Homo sapiens) (UniProt Q9UQM7); experiment: Inhibition of human CAMK2A at 100 nM using KKALRRQETVDAL as substrate by [gamma-33P]-ATP assay
[20] = target: Inhibitor of nuclear factor kappa-B kinase subunit alpha (Homo sapiens) (UniProt O15111); experiment: Inhibition of human IKKalpha at 100 nM using KKKKERLLDDRHDSGLDSMKDEE as substrate by [gamma-33P]-ATP assay
[21] = target: Casein kinase II subunit alpha' (Homo sapiens) (UniProt P19784); experiment: Inhibition of human CK2A2 at 100 nM using RRRDDDSDDD as substrate by [gamma-33P]-ATP assay
[22] = tested on: HeLa; experiment: Inhibition of colony formation in human HeLa cells at 1.25 uM incubated for 2 weeks crystal violet staining based assay; assay type: functional; settings: 336 h
[23] = Inhibition of PI3K/Akt/mTOR signaling in human HeLa cells assessed as reduction in AKT 473 phosphorylation incubated for 24 hrs by Western blot analysis; assay type: cell-based
[24] = target: Tyrosine-protein kinase FRK (Homo sapiens) (UniProt P42685); experiment: Inhibition of human FRK at 100 nM using poly[Glu:Tyr] (4:1) as substrate by [gamma-33P]-ATP assay
[25] = target: CDK1/Cyclin A (Homo sapiens) (UniProt P06493+P20248); experiment: Inhibition of human CDK1/Cyclin-A at 100 nM using Histone H1 as substrate by [gamma-33P]-ATP assay; assay type: protein-complex assay
[26] = target: Mitogen-activated protein kinase kinase kinase kinase 4 (Homo sapiens) (UniProt O95819); experiment: Inhibition of human HGK at 100 nM using MBP as substrate by [gamma-33P]-ATP assay
[27] = target: Calcium/calmodulin-dependent protein kinase kinase 1 (Homo sapiens) (UniProt Q8N5S9); experiment: Inhibition of human CAMKK1 at 100 nM using MBP as substrate by [gamma-33P]-ATP assay
[28] = tested on: HeLa; experiment: Antiproliferative activity against human HeLa cells assessed as reduction in cell viability incubated for 72 hrs by MTT assay; assay type: functional, cell-based
[29] = target: Serine/threonine-protein kinase SIK1 (Homo sapiens) (UniProt P57059); experiment: Inhibition of human SIK1 at 100 nM using AMARAASAAALARRR as substrate by [gamma-33P]-ATP assay
[30] = target: Dual specificity mitogen-activated protein kinase kinase 5 (Homo sapiens) (UniProt Q13163); experiment: Inhibition of human MEK5 at 100 nM using ERK5 as substrate by [gamma-33P]-ATP assay
[31] = target: ALK tyrosine kinase receptor (Homo sapiens) (UniProt Q9UM73); experiment: Inhibition of human ALK at 100 nM using poly[Glu:Tyr] (4:1) as substrate by [gamma-33P]-ATP assay

Sequence of Receptor-interacting serine/threonine-protein kinase 3 (Homo sapiens) (Q9Y572 whole entry, looked up): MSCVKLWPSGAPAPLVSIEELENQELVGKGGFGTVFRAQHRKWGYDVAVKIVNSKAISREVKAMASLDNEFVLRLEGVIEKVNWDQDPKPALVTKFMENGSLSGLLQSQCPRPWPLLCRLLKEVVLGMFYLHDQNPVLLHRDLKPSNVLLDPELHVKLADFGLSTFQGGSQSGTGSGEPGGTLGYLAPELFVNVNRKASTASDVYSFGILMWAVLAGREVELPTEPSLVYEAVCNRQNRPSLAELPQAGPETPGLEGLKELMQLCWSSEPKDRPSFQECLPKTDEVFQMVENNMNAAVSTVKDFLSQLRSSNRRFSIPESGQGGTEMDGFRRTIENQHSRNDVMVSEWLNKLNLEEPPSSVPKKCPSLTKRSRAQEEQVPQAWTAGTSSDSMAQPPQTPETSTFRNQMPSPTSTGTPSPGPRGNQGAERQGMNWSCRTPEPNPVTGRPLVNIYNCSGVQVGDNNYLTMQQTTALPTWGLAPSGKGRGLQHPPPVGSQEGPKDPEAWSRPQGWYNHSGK
Sequence of Serine/threonine-protein kinase SIK1 (Homo sapiens) (P57059 whole entry): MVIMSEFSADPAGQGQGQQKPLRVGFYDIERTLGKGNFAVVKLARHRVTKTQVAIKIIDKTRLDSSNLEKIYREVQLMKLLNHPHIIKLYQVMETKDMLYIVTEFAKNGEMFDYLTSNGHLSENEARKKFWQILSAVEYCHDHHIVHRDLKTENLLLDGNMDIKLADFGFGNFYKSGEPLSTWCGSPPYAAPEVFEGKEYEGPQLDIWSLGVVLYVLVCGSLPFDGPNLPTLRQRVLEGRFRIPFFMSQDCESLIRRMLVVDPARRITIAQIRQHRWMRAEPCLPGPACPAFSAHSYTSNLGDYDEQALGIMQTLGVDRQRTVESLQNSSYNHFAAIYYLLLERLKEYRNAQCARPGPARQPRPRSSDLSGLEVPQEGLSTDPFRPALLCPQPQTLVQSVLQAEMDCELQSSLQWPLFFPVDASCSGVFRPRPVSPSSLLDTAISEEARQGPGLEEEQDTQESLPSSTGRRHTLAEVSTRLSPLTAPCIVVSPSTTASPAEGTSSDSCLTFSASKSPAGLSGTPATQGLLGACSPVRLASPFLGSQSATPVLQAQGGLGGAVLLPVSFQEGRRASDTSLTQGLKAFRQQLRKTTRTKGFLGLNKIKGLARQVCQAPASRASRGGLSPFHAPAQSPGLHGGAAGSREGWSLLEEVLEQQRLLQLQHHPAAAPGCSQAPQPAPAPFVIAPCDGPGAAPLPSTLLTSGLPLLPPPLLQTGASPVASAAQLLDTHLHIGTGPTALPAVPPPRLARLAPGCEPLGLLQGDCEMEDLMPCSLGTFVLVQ
Sequence of Ribosomal protein S6 kinase alpha-1 (Homo sapiens) (Q15418 whole entry): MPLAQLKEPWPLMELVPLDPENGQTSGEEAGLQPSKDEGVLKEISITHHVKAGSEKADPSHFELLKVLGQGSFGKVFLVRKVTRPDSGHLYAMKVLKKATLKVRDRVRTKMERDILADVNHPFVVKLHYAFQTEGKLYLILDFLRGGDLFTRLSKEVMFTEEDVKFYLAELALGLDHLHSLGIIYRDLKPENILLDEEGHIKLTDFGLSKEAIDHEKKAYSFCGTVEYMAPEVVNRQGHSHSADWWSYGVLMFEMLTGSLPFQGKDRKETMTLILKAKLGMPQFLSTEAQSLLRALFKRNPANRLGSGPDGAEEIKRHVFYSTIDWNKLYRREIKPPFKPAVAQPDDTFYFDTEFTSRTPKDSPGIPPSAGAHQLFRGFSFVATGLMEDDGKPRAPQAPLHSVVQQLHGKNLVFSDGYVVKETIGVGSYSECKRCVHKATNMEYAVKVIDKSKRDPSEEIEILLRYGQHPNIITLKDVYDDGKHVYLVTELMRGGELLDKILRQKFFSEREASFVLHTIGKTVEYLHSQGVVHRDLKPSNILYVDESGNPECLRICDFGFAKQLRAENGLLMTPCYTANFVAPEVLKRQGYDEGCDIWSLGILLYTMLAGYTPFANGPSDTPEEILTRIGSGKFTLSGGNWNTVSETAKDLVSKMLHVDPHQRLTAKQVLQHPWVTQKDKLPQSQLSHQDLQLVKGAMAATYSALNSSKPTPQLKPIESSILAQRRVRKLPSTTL
Sequence of Tyrosine-protein kinase FRK (Homo sapiens) (P42685 whole entry): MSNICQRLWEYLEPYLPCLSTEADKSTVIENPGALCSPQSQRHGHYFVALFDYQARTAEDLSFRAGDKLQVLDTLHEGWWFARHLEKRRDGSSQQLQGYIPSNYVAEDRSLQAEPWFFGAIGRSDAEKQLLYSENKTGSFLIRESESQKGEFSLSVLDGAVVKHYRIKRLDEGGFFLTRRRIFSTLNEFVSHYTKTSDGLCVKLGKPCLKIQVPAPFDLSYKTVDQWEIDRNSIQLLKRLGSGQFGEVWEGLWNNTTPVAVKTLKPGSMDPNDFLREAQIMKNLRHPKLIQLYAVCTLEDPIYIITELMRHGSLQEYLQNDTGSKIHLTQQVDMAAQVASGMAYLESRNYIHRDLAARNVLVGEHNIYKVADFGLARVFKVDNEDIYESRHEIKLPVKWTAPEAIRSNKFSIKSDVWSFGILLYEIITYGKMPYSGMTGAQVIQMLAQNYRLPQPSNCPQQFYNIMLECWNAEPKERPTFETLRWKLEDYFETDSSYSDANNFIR
Sequence of Cyclin-dependent kinase 5/CDK5 activator 1 (Homo sapiens) (Q00535 whole entry): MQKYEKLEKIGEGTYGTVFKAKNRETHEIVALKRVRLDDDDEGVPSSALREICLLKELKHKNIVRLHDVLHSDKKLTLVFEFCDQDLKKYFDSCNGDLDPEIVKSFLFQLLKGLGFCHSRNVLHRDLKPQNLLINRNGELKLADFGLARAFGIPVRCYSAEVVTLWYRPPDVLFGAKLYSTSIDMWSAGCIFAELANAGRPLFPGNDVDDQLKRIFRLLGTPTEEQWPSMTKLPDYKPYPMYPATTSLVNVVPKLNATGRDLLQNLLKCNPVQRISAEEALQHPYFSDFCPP
Sequence of Cyclin-dependent kinase 5/CDK5 activator 1 (Homo sapiens) (Q15078 99-307 partner limits assumed): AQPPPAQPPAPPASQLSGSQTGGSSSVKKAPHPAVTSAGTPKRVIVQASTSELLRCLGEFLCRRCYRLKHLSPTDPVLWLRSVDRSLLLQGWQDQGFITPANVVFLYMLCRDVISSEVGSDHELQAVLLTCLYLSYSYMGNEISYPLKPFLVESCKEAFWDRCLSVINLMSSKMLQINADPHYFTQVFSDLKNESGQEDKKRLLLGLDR
Sequence of Dual specificity mitogen-activated protein kinase kinase 5 (Homo sapiens) (Q13163 whole entry): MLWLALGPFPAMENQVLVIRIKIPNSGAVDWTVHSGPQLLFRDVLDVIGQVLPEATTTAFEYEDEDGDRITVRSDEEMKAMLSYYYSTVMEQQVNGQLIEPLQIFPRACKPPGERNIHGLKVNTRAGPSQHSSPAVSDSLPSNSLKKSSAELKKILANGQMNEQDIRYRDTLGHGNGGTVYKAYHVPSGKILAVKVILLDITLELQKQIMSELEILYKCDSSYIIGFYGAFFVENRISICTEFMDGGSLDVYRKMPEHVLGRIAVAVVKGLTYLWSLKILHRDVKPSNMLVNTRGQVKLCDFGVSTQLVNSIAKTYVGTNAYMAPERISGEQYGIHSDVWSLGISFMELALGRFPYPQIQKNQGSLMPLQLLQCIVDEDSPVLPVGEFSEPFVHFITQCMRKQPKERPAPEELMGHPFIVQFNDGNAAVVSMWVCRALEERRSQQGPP
Sequence of Mitogen-activated protein kinase kinase kinase kinase 4 (Homo sapiens) (O95819 2-1239 limits assumed): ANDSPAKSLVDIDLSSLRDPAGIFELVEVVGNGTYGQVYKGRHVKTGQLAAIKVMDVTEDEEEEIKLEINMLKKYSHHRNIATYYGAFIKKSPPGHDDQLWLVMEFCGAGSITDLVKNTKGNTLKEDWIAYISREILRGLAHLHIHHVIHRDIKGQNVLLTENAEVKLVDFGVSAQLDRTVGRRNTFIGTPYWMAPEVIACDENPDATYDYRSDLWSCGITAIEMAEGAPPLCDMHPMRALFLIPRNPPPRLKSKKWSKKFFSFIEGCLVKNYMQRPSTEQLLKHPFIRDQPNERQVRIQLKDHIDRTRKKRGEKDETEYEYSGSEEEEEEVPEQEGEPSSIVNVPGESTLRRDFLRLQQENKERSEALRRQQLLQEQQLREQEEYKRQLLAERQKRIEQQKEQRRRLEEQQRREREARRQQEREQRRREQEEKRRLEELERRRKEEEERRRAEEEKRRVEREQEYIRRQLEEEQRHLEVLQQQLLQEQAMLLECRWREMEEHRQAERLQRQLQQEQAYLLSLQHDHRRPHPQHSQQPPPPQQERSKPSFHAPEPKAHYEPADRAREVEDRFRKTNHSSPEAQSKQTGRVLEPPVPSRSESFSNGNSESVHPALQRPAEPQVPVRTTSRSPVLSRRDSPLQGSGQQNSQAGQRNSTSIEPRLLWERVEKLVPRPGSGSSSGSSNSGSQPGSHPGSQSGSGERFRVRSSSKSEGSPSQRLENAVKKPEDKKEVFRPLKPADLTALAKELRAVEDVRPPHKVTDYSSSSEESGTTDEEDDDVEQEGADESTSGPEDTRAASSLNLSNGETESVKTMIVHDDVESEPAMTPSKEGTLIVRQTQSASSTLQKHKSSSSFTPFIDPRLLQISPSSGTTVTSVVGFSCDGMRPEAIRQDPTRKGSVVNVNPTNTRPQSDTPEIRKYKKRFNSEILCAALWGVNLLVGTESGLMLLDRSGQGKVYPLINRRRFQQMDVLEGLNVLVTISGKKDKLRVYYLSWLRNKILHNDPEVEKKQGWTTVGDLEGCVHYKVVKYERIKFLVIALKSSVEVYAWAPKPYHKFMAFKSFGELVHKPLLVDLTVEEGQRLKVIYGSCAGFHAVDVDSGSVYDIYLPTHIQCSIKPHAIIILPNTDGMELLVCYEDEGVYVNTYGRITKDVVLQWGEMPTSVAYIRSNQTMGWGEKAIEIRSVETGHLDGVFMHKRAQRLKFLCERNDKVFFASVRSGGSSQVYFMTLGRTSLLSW

Structure (SMILES): COc1ccc(N2C(=O)COc3ccc(-c4cnc(OC)c(NS(=O)(=O)c5ccc(F)cc5)c4)cc32)cc1
- inhibition [1]: -3.87%
- inhibition [2]: 2.85%
- inhibition [3]: -6.47%
- inhibition [4]: 6.64%
- inhibition [5]: -2.23%
- inhibition [6]: -6.81%
- inhibition [7]: 4.76%
- inhibition [8]: 29.8%
- inhibition [9]: -1.97%
- inhibition [10]: 10.8%
- inhibition [11]: 15.3%
- inhibition [12]: 4.12%
- inhibition [13]: 13%
- inhibition [14]: 9.26%
- inhibition [15]: -5.22%
- inhibition [16]: 15.9%
- inhibition [17]: -1.26%
- inhibition [18]: 5.37%
- inhibition [19]: 0.08%
- inhibition [20]: -2.43%
- inhibition [21]: 19.8%
- inhibition at 1.25 µM [22]: > 50%
- inhibition [23]: Dose-dependent effect
- inhibition [24]: 8.7%
- inhibition [25]: 16%
- inhibition [26]: 19.4%
- inhibition [27]: 14.3%
- IC50 [28]: 1220 nM
- inhibition [29]: 5.31%
- inhibition [30]: -3.16%
- inhibition [31]: 2.94%

From ChEMBL document CHEMBL4364276, “Discovery of 4-phenyl-2H-benzo[b][1,4]oxazin-3(4H)-one derivatives as potent and orally active PI3K/mTOR dual inhibitors” (Eur J Med Chem, 2019)
